According to the supplement of paper PMC8671470:
Structures can show the parent of a compound that is named as a salt.

Experiments:
Conditions in all cases: 72 h
[1] = test system: myeloid leukemia patient primary cells Pat.14; assay: area under dose-response curve (viability, 1 nM-10 uM) (fraction (0-1)); higher = more sensitive
Protocol: (§1)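 AUC (0–1, higher = more sensitive) of the 5-point dose–response (1 nM–10 µM, 72 h, CellTiter-Glo) in primary AML/CML patient mononuclear cells. 0.030103 is the floor for inactive compounds.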

[2] = test system: myeloid leukemia patient primary cells Pat.5; assay: as above
Protocol: as §1

[3] = test system: myeloid leukemia patient primary cells Pat.1; assay: as above
Protocol: as §1

[4] = test system: myeloid leukemia patient primary cells Pat.7; assay: as above
Protocol: as §1

[5] = test system: myeloid leukemia patient primary cells Pat.6; assay: as above
Protocol: as §1

[6] = test system: myeloid leukemia patient primary cells Pat.9; assay: as above
Protocol: as §1

[7] = test system: myeloid leukemia patient primary cells Pat.13; assay: as above
Protocol: as §1

[8] = test system: myeloid leukemia patient primary cells Pat.4; assay: as above
Protocol: as §1

[9] = test system: myeloid leukemia patient primary cells Pat.8; assay: as above
Protocol: as §1

[10] = test system: myeloid leukemia patient primary cells Pat.15; assay: as above
Protocol: as §1

[11] = test system: myeloid leukemia patient primary cells Pat.10; assay: as above
Protocol: as §1

[12] = test system: myeloid leukemia patient primary cells Pat.12; assay: as above
Protocol: as §1

[13] = test system: myeloid leukemia patient primary cells Pat.11; assay: cell viability (% survival relative to DMSO control); higher = less cytotoxic
Method in brief: (§2)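 Thawed, Ficoll-purified mononuclear cells from AML or CML patients in RPMI 1640 with 10% FBS were seeded at 10,000 cells/well on 384-well plates pre-printed with 70 compounds at five tenfold concentrations, 1–10,000 nM, in duplicate, for 72 h. Viability was read by CellTiter-Glo and normalised to DMSO and 10 μM proteasome-inhibitor wells. Where given, area under the curve came from four-parameter log-logistic fits (drc, PharmacoGx R packages).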

[14] = test system: myeloid leukemia patient primary cells Pat.5; assay: as above
Method in brief: as §2

[15] = test system: myeloid leukemia patient primary cells Pat.1; assay: as above
Method in brief: as §2

[16] = test system: myeloid leukemia patient primary cells Pat.2; assay: as above
Method in brief: as §2

[17] = test system: myeloid leukemia patient primary cells Pat.9; assay: as above
Method in brief: as §2

[18] = test system: myeloid leukemia patient primary cells Pat.13; assay: as above
Method in brief: as §2

[19] = test system: HL-60; assay: area under dose-response curve (viability, 1 nM-10 uM) (fraction (0-1)); higher = more sensitive
Method in brief: (§3)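 Four-parameter log-logistic fits in drc and PharmacoGx supplied area under the curve where it is given. Underlying viability came from CellTiter-Glo, normalised to DMSO and proteasome-inhibitor wells, with the proteasome inhibitor at 10 μM. HL-60 cells in RPMI 1640 plus 10% FBS had been rescreened against the full library at five tenfold concentrations of 1–10,000 nM, in duplicate on 384-well plates, with DMSO or 100 nM of one of three metabolic inhibitors, for 72 h at 37 °C, 5% CO2.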

[20] = test system: HL-60; assay: cell viability (% survival relative to DMSO control); higher = less cytotoxic
Method in brief: as §3

[21] = test system: myeloid leukemia patient primary cells Pat.11; assay: area under dose-response curve (viability, 1 nM-10 uM) (fraction (0-1)); higher = more sensitive
Protocol: as §1

[22] = test system: myeloid leukemia patient primary cells Pat.2; assay: as above
Protocol: as §1

Fc1ccc(CNc2ncnc3ccc(F)cc23)cc1 [Spautin 1]
Conditions | area under dose-response curve
[1] | 0.141
[2] | 0.326
[3] | 0.0783
[4] | 0.154
[5] | 0.0755
[6] | 0.762
[7] | 0.111
[8] | 0.0735
[9] | 0.0661
[10] | 0.12
[11] | 0.0351
[12] | < 0.0301

Conditions | area under dose-response curve, co-treatment: AZD3965 100 nM | area under dose-response curve, co-treatment: DMSO vehicle | area under dose-response curve, co-treatment: GSK2194069 100 nM | area under dose-response curve, co-treatment: pictilisib 100 nM | cell viability, 1 nM [%] | cell viability, 10 nM [%] | cell viability, 100 nM [%] | cell viability, 1000 nM [%] | cell viability, 10000 nM [%]
[13] | – | – | – | – | > 100 | 96.2 | 97.9 | 92.2 | 84.7
[14] | – | – | – | – | 84.9 | 17 | 78.9 | 25.9 | 2.01
[15] | – | – | – | – | 97 | 84.4 | 88.1 | 81.7 | 46.4
[16] | – | – | – | – | 97.1 | 88.7 | > 100 | 87.3 | 77.2
[17] | – | – | – | – | 67.2 | 7.92 | 65.9 | 12.7 | 5.45
[18] | – | – | – | – | 97.7 | 78.3 | 89.4 | 75.7 | 34.9
[19] | < 0.0301 | 0.0409 | 0.0623 | 0.0324 | – | – | – | – | –

cell viability [%], [20]
Conditions | 0.001 µM | 0.01 µM | 0.1 µM | 1 µM | 10 µM
co-treatment: AZD3965 100 nM | 78.7 | 99.98 | 101 | 103 | 71.3
co-treatment: DMSO vehicle | 98.11 | 97.89 | 109 | 96.7 | 78.31
co-treatment: GSK2194069 100 nM | 91.31 | 100 | 104 | 89.5 | 58
co-treatment: pictilisib 100 nM | 100 | 96.8 | 108 | 98.7 | 80.4

Cn1c2cc(S(C)=O)sc2c2cnn(Cc3cccc(N)c3)c(=O)c21 (stereo unspecified) [TEPP-46]
[19]
Conditions | area under dose-response curve
co-treatment: AZD3965 100 nM | < 0.0301
co-treatment: DMSO vehicle | < 0.0301
co-treatment: GSK2194069 100 nM | < 0.0301
co-treatment: pictilisib 100 nM | < 0.0301

cell viability [%], [20]
Conditions | 0.001 µM | 0.01 µM | 0.1 µM | 1 µM | 10 µM
co-treatment: AZD3965 100 nM | 98.7 | 108 | 113 | 102 | 100
co-treatment: DMSO vehicle | 99.6 | 103 | 104 | 104 | 107
co-treatment: GSK2194069 100 nM | 97.7 | 106 | 97.1 | 104 | 101
co-treatment: pictilisib 100 nM | 87.3 | 106 | 112 | 98.02 | 95.3

CCCCCCCCCCCCCCOc1ccc(C(=O)O)o1 [TOFA]
[19]
Conditions | area under dose-response curve
co-treatment: AZD3965 100 nM | < 0.0301
co-treatment: DMSO vehicle | < 0.0301
co-treatment: GSK2194069 100 nM | < 0.0301
co-treatment: pictilisib 100 nM | 0.114

cell viability [%], [20]
Conditions | 0.001 µM | 0.01 µM | 0.1 µM | 1 µM | 10 µM
co-treatment: AZD3965 100 nM | 96.4 | 101 | 104 | 97.5 | 100
co-treatment: DMSO vehicle | 98.8 | 102 | 98.8 | 98.5 | 97.592
co-treatment: GSK2194069 100 nM | 81.3 | 96.3 | 84.6 | 95.9 | 94.01
co-treatment: pictilisib 100 nM | 80.5 | 100 | 94.5 | 107 | 2.06

CN1CC(=O)N2[C@H](c3ccc4c(c3)OCO4)c3[nH]c4ccccc4c3C[C@@H]2C1=O [Tadalafil]
[19]
Conditions | area under dose-response curve
co-treatment: AZD3965 100 nM | < 0.0301
co-treatment: DMSO vehicle | < 0.0301
co-treatment: GSK2194069 100 nM | < 0.0301
co-treatment: pictilisib 100 nM | < 0.0301

cell viability [%], [20]
Conditions | 0.001 µM | 0.01 µM | 0.1 µM | 1 µM | 10 µM
co-treatment: AZD3965 100 nM | 104 | 105.1 | 97.6 | 104 | 109
co-treatment: DMSO vehicle | 100.5 | 103 | 98 | 100 | 112
co-treatment: GSK2194069 100 nM | 101.9 | 106 | 102 | 105 | 95.2
co-treatment: pictilisib 100 nM | 99.6 | 94.8 | 96.9 | 93.4 | 89.9

Cl.NC1=CCCN1Cc1nc(O)nc(O)c1Cl [Tipiracil]
[19]
Conditions | area under dose-response curve
co-treatment: AZD3965 100 nM | < 0.0301
co-treatment: DMSO vehicle | < 0.0301
co-treatment: GSK2194069 100 nM | < 0.0301
co-treatment: pictilisib 100 nM | < 0.0301

cell viability [%], [20]
Conditions | 0.001 µM | 0.01 µM | 0.1 µM | 1 µM | 10 µM
co-treatment: AZD3965 100 nM | 98.3 | 102 | 99.7 | 101 | 99.5
co-treatment: DMSO vehicle | 97.2 | 94.3 | 102 | 99.34 | 100.1
co-treatment: GSK2194069 100 nM | 98.7 | 97.9 | 97.8 | 98.6 | 88
co-treatment: pictilisib 100 nM | 93 | 100 | 93.7 | 97 | 86.7

CC(C)(Cc1ccccc1)NCC(O)c1ccc(O)c(NS(C)(=O)=O)c1 (stereo unspecified) [Zinterol hydrochloride]
Conditions | area under dose-response curve
[1] | < 0.0301
[2] | < 0.0301
[3] | < 0.0301
[4] | < 0.0301
[5] | < 0.0301
[6] | < 0.0301
[7] | < 0.0301
[8] | < 0.0301
[9] | < 0.0301
[10] | < 0.0301
[11] | < 0.0301
[12] | < 0.0301
[21] | < 0.0301
[22] | < 0.0301

cell viability [%]
Conditions | [13] | [14] | [15] | [16] | [17] | [18]
1 nM | 95.7 | 17 | 89.4 | 85.5 | 79.2 | 96.7
10 nM | > 100 | > 100 | > 100 | 96.4 | 79.5 | 99.8
100 nM | > 100 | 73 | 98.6 | 86 | 67.4 | 92.6
1000 nM | 96.2 | 99.9 | 94.8 | 99.7 | 74.7 | > 100
10000 nM | > 100 | 93.9 | > 100 | 93 | 87.2 | > 100

cell viability [%], [20]
Conditions | 0.001 µM | 0.01 µM | 0.1 µM | 1 µM | 10 µM
co-treatment: AZD3965 100 nM | 99.4 | 83.1 | 101 | 93.8 | 95.4
co-treatment: DMSO vehicle | 99.8 | 91.6 | 99.8 | 102 | 95.5
co-treatment: GSK2194069 100 nM | 97.9 | 100 | 95.1 | 101 | 94.64
co-treatment: pictilisib 100 nM | 85.5 | 91.4 | 86.6 | 90.4 | 72.6
